Earlier results in patent publication US20240252348A1, “EVA SEGMENTED INTRAVAGINAL RINGS CONTAINING PROGESTERONE” (priority 2019, published 2024).

Tested on: women with a short cervix
Settings: singleton pregnant women with short cervical length (SCL)

## CCCCCC(=O)O[C@]1(C(C)=O)CC[C@H]2[C@@H]3CCC4=CC(=O)CC[C@]4(C)[C@H]3CC[C@@]21C [Makena, 17-alpha hydroxyprogesterone caproate]
  prevention of preterm birth: ineffective
